Measured values taken from ChEMBL document CHEMBL1152980, “Identification of enoxacin as an inhibitor of osteoclast formation and bone resorption by structure-based virtual screening” (J Med Chem, 2009).
Activity calls are given as the source filed them. The rule behind the calls is not given here.

Key:
Osteoclast [1] = assay: Antiresorptive activity in 1,25-dihydroxyvitamin D3-stimulated Swiss Webster mouse osteoclast assessed as blockade of ruffled membrane formation on bone slices at 10 uM after 3 days; format: functional, cell-based
Osteoclast [2] = assay: Antiresorptive activity in 1,25-dihydroxyvitamin D3-stimulated Swiss Webster mouse osteoclast assessed as blockade of ruffled membrane formation on bone slices at 100 uM after 3 days; format: functional, cell-based
Bone marrow cell [3] = assay: Antiresorptive activity in 1,25-dihydroxyvitamin D3-stimulated Swiss Webster mouse bone marrow cells after 5 days; format: functional, cell-based
[4] = Reduction in osteoblast formation from mouse MC3T3-E1 cells assessed as alkaline phosphatase activity at 100 uM after 3 days; format: cell-based; details: mc3t3-e1, 72 h
Osteoclast [5] = assay: Antiresorptive activity in 1,25-dihydroxyvitamin D3-stimulated Swiss Webster mouse osteoclast assessed as blockade of actin ring formation on bone slices at 1 uM after 3 days; format: functional, cell-based
Bone marrow cell [6] = assay: Antiresorptive activity in 1,25-dihydroxyvitamin D3-stimulated Swiss Webster mouse bone marrow cells assessed as reduction in bone pit formation at 10 uM after 5 days; format: functional, cell-based
Bone marrow cell [7] = assay: Antiresorptive activity in 1,25-dihydroxyvitamin D3-stimulated Swiss Webster mouse bone marrow cells at 100 uM after 5 days; format: functional, cell-based
Bone marrow cell [8] = assay: (§1) Antiresorptive activity against 1,25-dihydroxyvitamin D3-stimulated osteoclast formation in Swiss Webster mouse bone marrow cells assessed as reduction of tartrate-resistant acid phosphatase activity after 7 days; format: functional, cell-based
[9] = target: V-type proton ATPase subunit B, brain isoform (Homo sapiens, UniProt P21281); assay: Inhibition of maltose binding protein-fused human V-ATPase subunit B2 binding to F-actin
[10] = Cytotoxicity against mouse MC3T3-E1 cells assessed as change in morphology at 100 uM after 3 days; format: cell-based; details: mc3t3-e1, 72 h
[11] = target: V-type proton ATPase subunit B (Saccharomyces cerevisiae S288c) (UniProt P16140); assay: Inhibition of Saccharomyces cerevisiae V-ATPase subunit B expressed in Escherichia coli binding to rabbit muscle actin filament at 100 uM by pelleting assay; details: Muscle tissue
[12] = Reduction in mouse MC3T3-E1 cell growth at 100 uM after 3 days; format: cell-based; details: mc3t3-e1, 72 h
Bone marrow cell [13] = assay: Antiresorptive activity in 1,25-dihydroxyvitamin D3-stimulated Swiss Webster mouse bone marrow cells assessed as reduction in bone pit formation at 25 uM after 5 days; format: functional, cell-based
Osteoclast [14] = assay: Antiresorptive activity in 1,25-dihydroxyvitamin D3-stimulated Swiss Webster mouse osteoclast assessed as blockade of ruffled membrane formation on bone slices at 1 uM after 3 days; format: functional, cell-based
Osteoclast [15] = assay: Antiresorptive activity in 1,25-dihydroxyvitamin D3-stimulated Swiss Webster mouse osteoclast assessed as blockade of actin ring formation on bone slices at 100 uM after 3 days; format: functional, cell-based
Osteoclast [16] = assay: Antiresorptive activity in 1,25-dihydroxyvitamin D3-stimulated Swiss Webster mouse osteoclast assessed as blockade of actin ring formation on bone slices at 10 uM after 3 days; format: functional, cell-based
Bone marrow cell [17] = assay: Antiresorptive activity in 1,25-dihydroxyvitamin D3-stimulated Swiss Webster mouse bone marrow cells assessed as reduction in resorptive area at 25 uM after 5 days; format: functional, cell-based
[18] = as §1; format: functional, cell-based; details: Bone marrow cell, 168 h

V-type proton ATPase subunit B (Saccharomyces cerevisiae S288c), sequence (P16140 whole entry): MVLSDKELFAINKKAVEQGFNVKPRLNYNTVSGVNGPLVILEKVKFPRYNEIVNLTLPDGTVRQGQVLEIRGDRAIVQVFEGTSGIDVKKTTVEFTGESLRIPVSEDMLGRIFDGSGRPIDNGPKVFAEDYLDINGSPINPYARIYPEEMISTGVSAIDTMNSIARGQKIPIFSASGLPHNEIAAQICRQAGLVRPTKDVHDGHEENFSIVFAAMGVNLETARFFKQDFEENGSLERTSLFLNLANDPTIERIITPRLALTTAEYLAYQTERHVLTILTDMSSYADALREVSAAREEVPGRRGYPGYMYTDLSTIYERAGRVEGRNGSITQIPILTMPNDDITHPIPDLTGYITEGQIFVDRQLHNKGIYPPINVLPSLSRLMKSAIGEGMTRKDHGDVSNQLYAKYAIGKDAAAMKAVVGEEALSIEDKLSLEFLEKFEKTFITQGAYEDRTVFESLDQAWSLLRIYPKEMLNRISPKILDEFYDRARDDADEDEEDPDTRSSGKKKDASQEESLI
V-type proton ATPase subunit B, brain isoform, sequence (P21281 whole entry, the tested form may be a part, canonical isoform): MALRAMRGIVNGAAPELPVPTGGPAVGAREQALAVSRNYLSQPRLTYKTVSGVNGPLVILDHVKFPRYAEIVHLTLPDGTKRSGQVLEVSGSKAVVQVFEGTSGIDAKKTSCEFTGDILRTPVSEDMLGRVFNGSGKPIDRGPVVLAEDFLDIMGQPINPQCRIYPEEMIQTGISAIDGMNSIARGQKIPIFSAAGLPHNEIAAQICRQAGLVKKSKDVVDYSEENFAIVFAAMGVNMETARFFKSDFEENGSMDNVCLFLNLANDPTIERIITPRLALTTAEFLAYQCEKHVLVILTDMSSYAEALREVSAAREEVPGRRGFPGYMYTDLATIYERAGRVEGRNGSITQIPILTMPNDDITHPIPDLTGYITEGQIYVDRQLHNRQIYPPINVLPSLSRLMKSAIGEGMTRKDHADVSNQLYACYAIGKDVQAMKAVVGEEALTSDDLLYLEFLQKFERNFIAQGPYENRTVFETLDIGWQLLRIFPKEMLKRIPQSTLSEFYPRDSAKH

IC50 [9] [µM]	inhibition [11]	IC50 [18] [µM]	Compound	Activity (Osteoclast [1])	Activity (Osteoclast [2])	Activity (Bone marrow cell [3])	Activity [4]	Activity (Osteoclast [5])	Activity (Bone marrow cell [6])	Activity (Bone marrow cell [7])	Activity (Bone marrow cell [8])	Activity [10]	Activity [12]	Activity (Bone marrow cell [13])	Activity (Osteoclast [14])	Activity (Osteoclast [15])	Activity (Osteoclast [16])	Activity (Bone marrow cell [17])
10	Active		CCn1cc(C(=O)O)c(=O)c2cc(F)c(N3CCNCC3)nc21 [ENOXACIN]	Active	Active	Dose-dependent effect	Toxic	inactive	Active	Active	Dose-dependent effect	Toxic	Toxic	Active	inactive	Active	Active	Active
		> 50	CCn1cc(C(=O)O)c(=O)c2cc(F)c(N3CCN(C)CC3)cc21 [PEFLOXACIN]															
